The numbers were not newly measured in patent publication US7279573B2, “Amide derivatives” (Kaken Pharmaceutical Co., Ltd., priority 1997, dated 2007), which cites them from elsewhere.

The conditions of data set [1]: human, in vivo.
For a further data set, the system named is growth hormone releasing. The conditions noted are these: control compounds for pharmacophore development.

GHRP-6: the oral bioavailability in data set [1] is on record as 0.3%.

For the compound `CC(C)(N)CC(=O)N[C@H]1CCc2ccccc2N(Cc2ccc(-c3ccccc3-c3nn[nH]n3)cc2)C1=O` [L-692,428], in the data set on growth hormone releasing, the “growth hormone releasing activity (active/inactive)” value was “inactive”.
